Legend:
seizures [1] = conditions: mice; after pro-convulsant drugs or an electric current; cited from earlier work
total seizures = test: Double-blind, randomized, placebo-controlled trial: total seizure count; format: in vivo, human; conditions: for Total seizure count, mean number of seizures per 28 days, treatment period: 16-week treatment period; for Total seizure count, mean number of seizures per 28 days, baseline period: baseline before treatment; for Reduction of seizures over the maintenance period (paragraph after the total seizure tables): 12-week maintenance period, placebo 30.1%
Protocol: (§1) The blinded phase of the study was a randomized, double-blind, parallel-group, 16-week comparison of two doses of CBD versus placebo. Patients completed a 1-week screening period and a 4-week baseline period before they were randomized to receive 25 mg/kg/day CBD, 50 mg/kg/day CBD or equivalent volumes of placebo. Randomization was stratified by age according to the following ranges: 1-6, 7-11, 12-17 years and 18+ years.
(§2) Patients began a 4-week dose escalation period, titrating up to their assigned dose, before continuing on a stable dose of blinded investigational medicinal product (IMP) for 12 weeks.
(§3) Patients were required to perform daily interactive voice response system (IVRS) telephone calls to record seizure information. They were also required to complete a paper diary daily with information about IMP and concomitant AED administration.
(§4) change in Caregiver Global Impression of Change (CGIC) or Subject Global Impression of Change (SGIC) score; and change in total seizures.
(§5) In addition to the TSC-associated seizures (focal motor seizures without impairment of consciousness or awareness; focal seizures with impairment of consciousness or awareness; focal seizures evolving to bilateral generalized convulsive seizures and generalized seizures (tonic-clonic, tonic, clonic or atonic) that are countable) the total seizure count was recorded in the trial.

TSC-associated seizures = test: Double-blind, randomized, placebo-controlled trial: TSC-associated seizure frequency; format: in vivo, human; conditions: for Mean number of TSC-associated seizures per 28 days, treatment period: 16-week treatment period, add-on to AEDs; for Mean number of TSC-associated seizures per 28 days, baseline period: 4-week baseline before treatment; for Reduction in TSC-associated seizures over the maintenance period: 12-week maintenance period, placebo 30%; for Patients who experienced a ≥50% reduction in seizures, number (%): placebo 17 (22.4%); for TSC-associated seizures, estimated ratio CBD/Placebo / TSC-associated seizures, percentage reduction CBD/Placebo: treatment period
Protocol: as §1, §2, §3
The primary endpoint was the change in number of TSC-associated seizures during the treatment period (maintenance and titration) compared to baseline in patients taking CBD compared with placebo.
as §5, with “TSC-associated” for “In addition to the TSC-associated”, “included: focal” for “(focal”, “countable.” for “countable) the total seizure count was recorded in the trial.”
Secondary endpoints included the number of patients considered treatment responders which was defined as those with a >50% reduction in TSC-associated seizure frequency;
Antiepileptic efficacy measures were also determined and these included: number of patients considered treatment responders defined as those with a ≥25%, ≥50%, ≥75% or 100% reduction in TSC-associated seizure frequency; number of patients experiencing a >25% worsening, −25 to +25% no change, 25-50% improvement, 50-75% improvement or >75% improvement in TSC-associated seizure frequency; change in number of TSC-associated seizure-free days; and change in number of ‘other’ seizures (absence, myoclonic, focal sensory and infantile/epileptic spasms).

generalized epilepsy = conditions: eight adult patients with generalized epilepsy; cited from earlier work
seizures [2] = conditions: 200 mg/day pure CBD; twelve institutionalized adult patients; open label; cited from earlier work
seizures [3] = conditions: 200 mg/day pure CBD; four adult patients; cited from earlier work
[4] = Double-blind, randomized, placebo-controlled trial: safety and tolerability (adverse events, ALT); format: in vivo, human; conditions: for Patients with alanine aminotransferase (ALT) elevations >3 upper level of normal (ULN): none on placebo
Protocol: as §1
Safety and tolerability measures that were recorded included: adverse events; clinical laboratory parameters; 12-lead electrocardiogram (ECG); physical examination parameters (including height and weight); vital signs; Columbia-Suicide Severity Rating Scale (C-SSRS; 19+ years) or C-SSRS Children's (6-18 years) score, where applicable; number of inpatient hospitalizations due to epilepsy; abuse liability and effects on menstruation cycles (in females).

[5] = Double-blind, randomized, placebo-controlled trial: Subject/Caregiver Global Impression of Change; format: in vivo, human; conditions: for Subject/caregiver global impression of change: Much improved, number (%) / Subject/caregiver global impression of change: Much worse, number (%) / Subject/caregiver global impression of change: No change, number (%) / Subject/caregiver global impression of change: Slightly improved, number (%) / Subject/caregiver global impression of change: Slightly worse, number (%) / Subject/caregiver global impression of change: Very much worse, number (%) / Subject/caregiver global impression of change: Very much improved, number (%): data from last visit
Protocol: as §1, §4

[6] = CBD 25 mg/kg/day group (n = 75)
[7] = CBD 50 mg/kg/day group (n = 73)
[8] = CBD 50 mg/kg/day, treatment period, p-value 0.0018
[9] = CBD 25 mg/kg/day, p-value 0.0009
[10] = CBD 50 mg/kg/day, p-value 0.0018

## C=C(C)[C@@H]1CCC(C)=C[C@H]1c1c(O)cc(CCCCC)cc1O [CBD, cannabidiol]
Seizures [1]
  Prevention of seizures: able to prevent seizures
Total seizures; CBD 25 mg/kg/day (n = 75)
  Total seizures, estimated ratio Treatment period/Baseline period: 0.519
  Total seizures, percentage reduction Treatment period/Baseline period: 48.1%
  Total seizure count, mean number of seizures per 28 days, treatment period: 28.0 per 28 days
Total seizures; [6]
  Total seizure count, mean number of seizures per 28 days, baseline period: 53.9 per 28 days
Total seizures; CBD 25 mg/kg/day, p=0.0007
  Reduction of seizures over the maintenance period (paragraph after the total seizure tables): 55%
Total seizures; CBD 25 mg/kg/day, treatment period, p-value 0.0013
  Total seizures, estimated ratio CBD/Placebo: 0.709
Total seizures; CBD 50 mg/kg/day (n = 73)
  Total seizures, estimated ratio Treatment period/Baseline period: 0.524
  Total seizures, percentage reduction Treatment period/Baseline period: 47.6%
  Total seizure count, mean number of seizures per 28 days, treatment period: 39.6 per 28 days
Total seizures; [7]
  Total seizure count, mean number of seizures per 28 days, baseline period: 75.7 per 28 days
Total seizures; CBD 50 mg/kg/day, p=0.0005
  Reduction of seizures over the maintenance period (paragraph after the total seizure tables): 55.9%
Total seizures; [8]
  Total seizures, estimated ratio CBD/Placebo: 0.716
  Total seizures, percentage reduction CBD/Placebo: 28.4%
Total seizures; both 25 and 50 mg/kg/day
  Total number of seizures (conclusion): significantly reduce
TSC-associated seizures; CBD 25 mg/kg/day
  Patients with complete seizure freedom (100% reduction in TSC-associated seizure frequency): 4 patients
TSC-associated seizures; CBD 25 mg/kg/day (n = 75)
  TSC-associated seizures, estimated ratio Treatment period/Baseline period: 0.514
  TSC-associated seizures, percentage reduction Treatment period/Baseline period: 48.6%
  Mean number of TSC-associated seizures per 28 days, treatment period: 26.5 per 28 days
TSC-associated seizures; [6]
  Mean number of TSC-associated seizures per 28 days, baseline period: 51.6 per 28 days
TSC-associated seizures; CBD 25 mg/kg/day, p=0.0004
  Reduction in TSC-associated seizures over the maintenance period: 55.8%
TSC-associated seizures; CBD 25 mg/kg/day, p=0.0692
  Patients who experienced a ≥50% reduction in seizures, number (%): 27 (36.0%) patients
TSC-associated seizures; [9]
  TSC-associated seizures, estimated ratio CBD/Placebo: 0.699
  TSC-associated seizures, percentage reduction CBD/Placebo: 30.1%
TSC-associated seizures; CBD 50 mg/kg/day
  Patients with complete seizure freedom (100% reduction in TSC-associated seizure frequency): 2 patients
TSC-associated seizures; CBD 50 mg/kg/day (n = 73)
  TSC-associated seizures, estimated ratio Treatment period/Baseline period: 0.525
  TSC-associated seizures, percentage reduction Treatment period/Baseline period: 47.5%
  Mean number of TSC-associated seizures per 28 days, treatment period: 34.9 per 28 days
TSC-associated seizures; [7]
  Mean number of TSC-associated seizures per 28 days, baseline period: 66.3 per 28 days
TSC-associated seizures; CBD 50 mg/kg/day, p=0.0005
  Reduction in TSC-associated seizures over the maintenance period: 55.8%
TSC-associated seizures; CBD 50 mg/kg/day, p=0.0245
  Patients who experienced a ≥50% reduction in seizures, number (%): 29 (39.2%) patients
TSC-associated seizures; [10]
  TSC-associated seizures, estimated ratio CBD/Placebo: 0.715
  TSC-associated seizures, percentage reduction CBD/Placebo: 28.5%
TSC-associated seizures; both 25 and 50 mg/kg/day
  Number of TSC-associated seizures (conclusion): significantly reduce
Generalized epilepsy
  Reduction of seizures: marked reduction of seizures in 4 of the patients
Seizures [2]
  Control of seizures: ineffective
Seizures [3]
  Seizure freedom: two of the four patients became seizure free
[4]; 50 mg/kg/day group compared to 25 mg/kg/day group
  Incidence of diarrhoea, vomiting, transaminase elevations, somnolence, and rash: higher in the 50 mg/kg/day group
[4]; CBD 25 mg/kg/day (n = 75)
  Treatment emergent adverse event, maximal severity Mild, number (%): 37 (49.3%)
  Treatment emergent adverse event, maximal severity Moderate, number (%): 26 (34.7%)
  Treatment emergent adverse event, maximal severity Severe, number (%): 7 (9.3%)
[4]; CBD 25 mg/kg/day
  Patients with alanine aminotransferase (ALT) elevations >3 upper level of normal (ULN): 12%
[4]; CBD 50 mg/kg/day (n = 73)
  Treatment emergent adverse event, maximal severity Mild, number (%): 29 (39.7%)
  Treatment emergent adverse event, maximal severity Moderate, number (%): 35 (47.9%)
  Treatment emergent adverse event, maximal severity Severe, number (%): 9 (12.3%)
[4]; CBD 50 mg/kg/day
  Patients with alanine aminotransferase (ALT) elevations >3 upper level of normal (ULN): 25%
[4]; patients on concomitant valproic acid and on the higher dose of CBD
  Rate of ALT elevations: higher rate of ALT elevations
[4]; patients receiving CBD, 25 or 50 mg/kg/day
  Most common adverse reactions (≥10% and greater than placebo): somnolence; decreased appetite; diarrhoea; vomiting; transaminase elevations; pyrexia; and infections
[5]; 25 mg/kg/day group
  Subject/caregiver's global impression of change (conclusion): significant efficacy
[5]; CBD 25 mg/kg/day
  Subject/caregiver global impression of change: Much improved, number (%): 12 (18.2%)
  Subject/caregiver global impression of change: Much worse, number (%): 2 (3.0%)
  Subject/caregiver global impression of change: No change, number (%): 14 (21.2%)
  Subject/caregiver global impression of change: Slightly improved, number (%): 23 (34.8%)
  Subject/caregiver global impression of change: Slightly worse, number (%): 4 (6.1%)
  Subject/caregiver global impression of change: Very much worse, number (%): 1 (1.5%)
[5]; CBD 25 mg/kg/day, overall p-value 0.0074
  Subject/caregiver global impression of change: Very much improved, number (%): 10 (15.2%)
[5]; CBD 50 mg/kg/day
  Subject/caregiver global impression of change: Much improved, number (%): 12 (18.2%)
  Subject/caregiver global impression of change: Much worse, number (%): 3 (4.5%)
  Subject/caregiver global impression of change: No change, number (%): 14 (21.2%)
  Subject/caregiver global impression of change: Slightly improved, number (%): 21 (31.8%)
  Subject/caregiver global impression of change: Slightly worse, number (%): 6 (9.1%)
  Subject/caregiver global impression of change: Very much worse, number (%): 1 (1.5%)
[5]; CBD 50 mg/kg/day, overall p-value 0.0580
  Subject/caregiver global impression of change: Very much improved, number (%): 9 (13.6%)

Source: US20260240873A1, “USE OF C[…] THE TREATMENT OF TUBEROUS SCLEROSIS COMPLEX” (GW Research Limited, priority 2019, published 2026)
